Data taken from ChEMBL document CHEMBL2021903, “3-Deoxy-3,4-dehydro analogs of XM462. Preparation and activity on sphingolipid metabolism and cell fate” (Bioorg Med Chem, 2012).
Calls of active or inactive are those of the source. No cut-off for these calls is given here.

Experiments:
[1] = biological target: T1, Sphingomyelin phosphodiesterase (Homo sapiens) (UniProt P17405); experiment: Inhibition of aSMase expressed in human A549 cells using 6-hexadecanoylamino-4-methylumbelliferylphosphorylcholine as substrate at 40 uM after 2 hrs by spectrophotometry; assay type: cell-based
T1 sequence (whole entry): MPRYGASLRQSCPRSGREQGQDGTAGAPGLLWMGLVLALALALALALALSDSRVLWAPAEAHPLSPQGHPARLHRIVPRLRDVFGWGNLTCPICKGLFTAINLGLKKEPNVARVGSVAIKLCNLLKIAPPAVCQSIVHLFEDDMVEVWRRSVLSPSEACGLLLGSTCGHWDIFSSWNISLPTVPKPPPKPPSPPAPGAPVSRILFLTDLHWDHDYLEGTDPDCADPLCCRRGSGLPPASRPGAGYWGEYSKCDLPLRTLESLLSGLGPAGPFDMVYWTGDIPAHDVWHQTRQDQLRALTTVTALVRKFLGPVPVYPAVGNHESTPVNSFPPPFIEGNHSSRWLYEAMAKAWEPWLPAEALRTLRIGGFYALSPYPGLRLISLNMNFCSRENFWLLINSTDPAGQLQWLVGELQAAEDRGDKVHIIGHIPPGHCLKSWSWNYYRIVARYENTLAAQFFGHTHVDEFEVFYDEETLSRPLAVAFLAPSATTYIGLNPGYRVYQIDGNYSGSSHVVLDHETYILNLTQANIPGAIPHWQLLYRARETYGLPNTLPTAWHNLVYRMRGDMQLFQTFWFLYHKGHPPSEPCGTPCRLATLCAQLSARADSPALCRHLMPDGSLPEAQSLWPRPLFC

[2] = biological target: T2, Lysosomal acid glucosylceramidase (Homo sapiens) (UniProt P04062); experiment: Inhibition of glucocerebrosidase in human A549 cells using 4-methylumbelliferyl beta-D-glucoside as substrate at 40 uM after 45 mins by spectrophotometry; assay type: cell-based
T2 sequence (whole entry): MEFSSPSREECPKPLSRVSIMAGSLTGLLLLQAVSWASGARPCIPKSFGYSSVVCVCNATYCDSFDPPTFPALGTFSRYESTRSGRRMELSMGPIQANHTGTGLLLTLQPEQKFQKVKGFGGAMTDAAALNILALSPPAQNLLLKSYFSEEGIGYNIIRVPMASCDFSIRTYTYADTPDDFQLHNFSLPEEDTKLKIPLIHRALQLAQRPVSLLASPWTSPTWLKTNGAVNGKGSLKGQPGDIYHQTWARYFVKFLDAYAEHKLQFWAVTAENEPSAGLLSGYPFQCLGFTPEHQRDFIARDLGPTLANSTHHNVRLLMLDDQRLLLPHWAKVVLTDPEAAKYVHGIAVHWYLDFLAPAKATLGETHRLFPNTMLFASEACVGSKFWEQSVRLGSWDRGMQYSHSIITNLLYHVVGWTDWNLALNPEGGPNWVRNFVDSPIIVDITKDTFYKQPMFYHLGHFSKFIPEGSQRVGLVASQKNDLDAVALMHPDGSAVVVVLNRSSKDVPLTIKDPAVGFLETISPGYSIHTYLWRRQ

[3] = biological target: T2, Lysosomal acid glucosylceramidase (Homo sapiens); experiment: Inhibition of glucocerebrosidase in human A549 cells using 4-methylumbelliferyl beta-D-glucoside as substrate at 20 uM after 45 mins by spectrophotometry; assay type: cell-based
[4] = biological target: T1, Sphingomyelin phosphodiesterase (Homo sapiens); experiment: Inhibition of aSMase expressed in human A549 cells using 6-hexadecanoylamino-4-methylumbelliferylphosphorylcholine as substrate at 20 uM after 2 hrs by spectrophotometry; assay type: cell-based
[5] = biological target: T3, Sphingolipid delta(4)-desaturase DES1 (Homo sapiens, UniProt O15121); experiment: Inhibition of Des1 in human A549 cells assessed as formation of CerC6NBD from dhCerC6NBD after 4 hrs by HPLC-FD analysis
T3 sequence (O15121 whole entry): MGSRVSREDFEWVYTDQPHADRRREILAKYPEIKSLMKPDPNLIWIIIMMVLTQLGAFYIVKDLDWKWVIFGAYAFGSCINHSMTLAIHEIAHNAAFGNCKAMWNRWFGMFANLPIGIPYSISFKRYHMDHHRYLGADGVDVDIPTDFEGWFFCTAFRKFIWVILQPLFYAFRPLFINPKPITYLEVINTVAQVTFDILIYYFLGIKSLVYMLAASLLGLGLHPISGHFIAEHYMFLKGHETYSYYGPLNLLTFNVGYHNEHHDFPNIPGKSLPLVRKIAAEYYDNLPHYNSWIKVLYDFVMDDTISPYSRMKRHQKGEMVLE

[6] = biological target: T1, Sphingomyelin phosphodiesterase (Homo sapiens); experiment: Inhibition of aSMase expressed in human A549 cells using 6-hexadecanoylamino-4-methylumbelliferylphosphorylcholine as substrate at 10 uM after 2 hrs by spectrophotometry; assay type: cell-based
[7] = biological target: T3, Sphingolipid delta(4)-desaturase DES1; experiment: Inhibition of Des1 in human HCT116 cells assessed as formation of CerC6NBD from dhCerC6NBD after 4 hrs by HPLC-FD analysis
[8] = biological target: T2, Lysosomal acid glucosylceramidase (Homo sapiens); experiment: Inhibition of glucocerebrosidase in human A549 cells using 4-methylumbelliferyl beta-D-glucoside as substrate at 10 uM after 45 mins by spectrophotometry; assay type: cell-based

## CCCCCCCCCCCCCS/C=C/[C@H](CO)NC(=O)c1ccc(C(C)(C)C)cc1
[1]
  inhibition: inactive
[2]
  inhibition: inactive

## CCCCCCCCCCCCCS/C=C/[C@H](CO)NC(=O)C(C)(C)C
[3]
  inhibition: inactive
[4]
  inhibition: inactive

## CCCCCCCCCCCCCS/C=C/[C@H](CO)NC(=O)CCCCCCC
[5]
  IC50: 18.1 µM
[6]
  inhibition: inactive
[7]
  IC50: 18.8 µM
[8]
  inhibition: inactive
